Values quoted from earlier work, collected in PubChem BioAssay AID1259409 (Chemical Carcinogenesis Research Information System (CCRIS), 2018).

Tested on: rodent chemically induced tumor inhibition, incidence and multiplicity
Assay: CCRIS tumor inhibitor studies
Conditions: Route [Inhibitor]: ORAL, Promoter: NONE USED; for outcome: Target Tissue: Type of Lesion: GALLBLADDER: CARCINOMA IN SITU

## O=[Se](O)O
Carcinogen: 1,2-DIMETHYLHYDRAZINE, 540-73-8, Dose [Inhibitor]: 0, 10 MG/L IN DRINKING WATER FOR DURATION OF STUDY BEGINNING 7 D PRIOR TO CARCINOGEN TREATMENT (STUDY DURATION: 8 MO), Species: RAT, Strain/Sex: BD6/MALE, Target Tissue: Type of Lesion: INTESTINE: TUMOR, Dose [Carcinogen]: 20 MG/KG BW 1/WK FOR 20 WK
  tumour outcome (control, treated, inhibition, significance): 100%, 100%, 0%, not significant
Carcinogen: 1,2-DIMETHYLHYDRAZINE, 540-73-8, Dose [Inhibitor]: 4 PPM IN DRINKING WATER DAILY FOR 10-20 WK STARTING AFTER COMPLETION OF CARCINOGEN TREATMENT AND CONTINUING FOR DURATION, Species: RAT, Strain/Sex: SPRAGUE-DAWLEY/MALE, Target Tissue: Type of Lesion: COLON: ADENOCARCINOMA, VILLOUS ADENOMA, Dose [Carcinogen]: 20 MG/KG BW 1/WK FOR 20 WK
  tumour outcome (control, treated, inhibition, significance): 29/32 (91%), 63/69 (91%), 0%, not calculated
Carcinogen: 1,2-DIMETHYLHYDRAZINE, 540-73-8, Dose [Inhibitor]: 4 PPM IN DRINKING WATER DAILY FOR 20 WK STARTING SIMULTANEOUSLY WITH CARCINOGEN TREATMENT AND CONTINUING THROUGH END OF, Species: RAT, Strain/Sex: SPRAGUE-DAWLEY/MALE, Target Tissue: Type of Lesion: COLON: ADENOCARCINOMA, Dose [Carcinogen]: 20 MG/KG BW 1/WK FOR 20 WK
  tumour outcome (control, treated, inhibition, significance): 13/15 (87%), 6/15 (40%), 54%, p 0.025
Carcinogen: 1,2-DIMETHYLHYDRAZINE, 540-73-8, Dose [Inhibitor]: 4 PPM IN DRINKING WATER DAILY STARTING 2 WK PRIOR TO START OF CARCINOGEN TREATMENT AND CONTINUING FOR DURATION OF STUDY, Species: RAT, Strain/Sex: SPRAGUE-DAWLEY/MALE, Target Tissue: Type of Lesion: COLON: ADENOCARCINOMA, Dose [Carcinogen]: 20 MG/KG BW IN BACTERIOSTATIC SALINE 1/WK FOR 20 WK
  tumour outcome (control, treated, inhibition, significance): 9/14 (64%), 4/13 (31%), 52%, not calculated
Carcinogen: 2-(ACETYLAMINO)FLUORENE, 6292-55-3, Dose [Inhibitor]: 4 PPM IN DRINKING WATER DAILY STARTING 1 WK PRIOR TO CARCINOGEN TREATMENT AND CONTINUING FOR DURATION OF STUDY (STUDY DU, Species: RAT, Strain/Sex: SPRAGUE-DAWLEY/MALE, Target Tissue: Type of Lesion: LIVER: CARCINOMA, Dose [Carcinogen]: 0.03% IN DIET DAILY FOR 14 WK
  tumour outcome (control, treated, inhibition, significance): 9/13 (69%), 4/14 (29%), 58%, not calculated
Carcinogen: 3'-METHYL-4-DIMETHYLAMINOAZOBENZENE, 55-80-1, Dose [Inhibitor]: 6 PPM IN DRINKING WATER DAILY STARTING 1 WK PRIOR TO START OF CARCINOGEN TREATMENT AND CONTINUING FOR DURATION OF STUDY, Species: RAT, Strain/Sex: SPRAGUE-DAWLEY/MALE, Target Tissue: Type of Lesion: LIVER: ADENOCARCINOMA, Dose [Carcinogen]: 0.05% IN DIET DAILY FOR 8 WK
  tumour outcome (control, treated, inhibition, significance): 11/12 (92%), 7/15 (46%), 50%, p<0.01
Carcinogen: 3-METHYLCHOLANTHRENE, 56-49-5, Dose [Inhibitor]: 0, 0.5 PPM IN DRINKING WATER FOR 24 WK BEGINNING 4 WK PRIOR TO CARCINOGEN TREATMENT (STUDY DURATION: 24 WK), Species: HAMSTER, Strain/Sex: SYRIAN/FEMALE, Dose [Carcinogen]: 3 MG IN BEESWAX PELLET INSERTED INTO GALLBLADDER AT WK 4 OF STUDY
  outcome: 0/24 (0%), 3/20 (15%), -100%, not significant
Carcinogen: 3-METHYLCHOLANTHRENE, 56-49-5, Dose [Inhibitor]: 0, 0.5 PPM IN DRINKING WATER FOR 24 WK BEGINNING 4 WK PRIOR TO CARCINOGEN TREATMENT (STUDY DURATION: 24 WK), Species: HAMSTER, Strain/Sex: SYRIAN/FEMALE, Target Tissue: Type of Lesion: GALLBLADDER: INVASIVE ADENOCARCINOMA, Dose [Carcinogen]: 3 MG IN BEESWAX PELLET INSERTED INTO GALLBLADDER AT WK 4 OF STUDY
  tumour outcome (control, treated, inhibition, significance): 21/24 (88%), 11/20 (55%), 38%, p<0.05
Carcinogen: 3-METHYLCHOLANTHRENE, 56-49-5, Dose [Inhibitor]: 0, 2 PPM IN DRINKING WATER FOR 24 WK BEGINNING 4 WK PRIOR TO CARCINOGEN TREATMENT (STUDY DURATION: 24 WK), Species: HAMSTER, Strain/Sex: SYRIAN/FEMALE, Dose [Carcinogen]: 3 MG IN BEESWAX PELLET INSERTED INTO GALLBLADDER AT WK 4 OF STUDY
  outcome: 0/24 (0%), 7/21 (33%), -100%, p<0.05
Carcinogen: 3-METHYLCHOLANTHRENE, 56-49-5, Dose [Inhibitor]: 0, 2 PPM IN DRINKING WATER FOR 24 WK BEGINNING 4 WK PRIOR TO CARCINOGEN TREATMENT (STUDY DURATION: 24 WK), Species: HAMSTER, Strain/Sex: SYRIAN/FEMALE, Target Tissue: Type of Lesion: GALLBLADDER: INVASIVE ADENOCARCINOMA, Dose [Carcinogen]: 3 MG IN BEESWAX PELLET INSERTED INTO GALLBLADDER AT WK 4 OF STUDY
  tumour outcome (control, treated, inhibition, significance): 21/24 (88%), 10/21 (48%), 45%, p<0.05
Carcinogen: 3-METHYLCHOLANTHRENE, 56-49-5, Dose [Inhibitor]: 0, 2 UG/G/BW 2/WK FOR 20 WK (STUDY DURATION: 20 WK), Species: MOUSE, Strain/Sex: ICRC/MALE, Target Tissue: Type of Lesion: SKIN: PAPILLOMA, Dose [Carcinogen]: 50 UG IN 0.2 ML ACETONE 2/WK
  tumour outcome (control, treated, inhibition, significance): 100%, 100%, 0%, not significant
Carcinogen: 3-METHYLCHOLANTHRENE, 56-49-5, Dose [Inhibitor]: 0, 4 PPM IN DRINKING WATER FOR 24 WK BEGINNING 4 WK PRIOR TO CARCINOGEN TREATMENT (STUDY DURATION: 24 WK), Species: HAMSTER, Strain/Sex: SYRIAN/FEMALE, Dose [Carcinogen]: 3 MG IN BEESWAX PELLET INSERTED INTO GALLBLADDER AT WK 4 OF STUDY
  outcome: 0/24 (0%), 5/22 (23%), -100%, p<0.05
Carcinogen: 3-METHYLCHOLANTHRENE, 56-49-5, Dose [Inhibitor]: 0, 4 PPM IN DRINKING WATER FOR 24 WK BEGINNING 4 WK PRIOR TO CARCINOGEN TREATMENT (STUDY DURATION: 24 WK), Species: HAMSTER, Strain/Sex: SYRIAN/FEMALE, Target Tissue: Type of Lesion: GALLBLADDER: INVASIVE ADENOCARCINOMA, Dose [Carcinogen]: 3 MG IN BEESWAX PELLET INSERTED INTO GALLBLADDER AT WK 4 OF STUDY
  tumour outcome (control, treated, inhibition, significance): 21/24 (88%), 12/22 (55%), 38%, p<0.05
Carcinogen: 4-(METHYLNITROSAMINO)-1-(3-PYRIDYL)-1-BUTANONE, 64091-91-4, Dose [Inhibitor]: 0, 0.0022 G/KG DIET (0.00008 UMOL/D) BEGINNING 2 WK PRIOR TO CARCINOGEN DOSE AND CONTINUING FOR DURATION OF STUDY (STUDY, Species: MOUSE, Strain/Sex: STRAIN-A/FEMALE, Target Tissue: Type of Lesion: LUNG: ADENOMA, Dose [Carcinogen]: 9.2, 9.1 MG/MOUSE IN DRINKING WATER DURING 7 WK
  tumour outcome (control, treated, inhibition, significance): 28/28 (100%), 24/25 (96%), 4%, not significant
Carcinogen: 4-(METHYLNITROSAMINO)-1-(3-PYRIDYL)-1-BUTANONE, 64091-91-4, Dose [Inhibitor]: 0, 5 PPM IN DIET BEGINNING 1 WK PRIOR TO CARCINOGEN TREATMENT AND CONTINUING FOR 16 WK POST CARCINOGEN TREATMENT (STUDY, Species: MOUSE, Strain/Sex: STRAIN-A/FEMALE, Target Tissue: Type of Lesion: LUNG: ADENOMA, Dose [Carcinogen]: 10 UMOL IN 0.1 ML SALINE
  tumour outcome (control, treated, inhibition, significance): 100%, 100%, 0%, not significant
